Data: patent US12492173B2, “Herbicidal substituted N-tetrazolyl aryl carboxamides” (Bayer Aktiengesellschaft, priority 2019, dated 2025)

How the values were obtained:
Format in all cases: in vivo
Amaranthus retroflexus = test: Pre-emergence herbicidal action, AMARE; conditions: dosage 320 g/ha, scored visually after 3 weeks vs untreated controls (100% = plants have died)
Summary of the method: (§1)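 Application took place on the soil surface immediately after sowing into sandy loam, using aqueous WP or EC preparations with 0.2% wetting agent. Visual percent scoring followed 3 weeks later, untreated pots serving as reference.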

Setaria viridis = test: Pre-emergence herbicidal action, SETVI; conditions: dosage 320 g/ha, scored visually after 3 weeks vs untreated controls (100% = plants have died)
Summary of the method: as §1

Abutilon theophrasti = test: Pre-emergence herbicidal action, ABUTH; conditions: dosage 320 g/ha, scored visually after 3 weeks vs untreated controls (100% = plants have died)
Summary of the method: as §1

Stellaria media = test: Pre-emergence herbicidal action, STEME; conditions: dosage 320 g/ha, scored visually after 3 weeks vs untreated controls (100% = plants have died)
Summary of the method: as §1

Matricaria inodora = test: Post-emergence herbicidal action, MATIN; design: key: % herbicidal action vs untreated; 100 = plants died, 0 = like control
Summary of the method: (§2)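 One-leaf-stage weeds, raised from seed in greenhouse sandy loam, received a single foliar spray of compound as wettable powder or emulsion concentrate with 0.2% wetting agent added. Growth continued under optimal conditions for about 3 weeks before percent damage was scored by eye against controls.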

Echinochloa crus-galli = test: Post-emergence herbicidal action, ECHCG; design: key: % herbicidal action vs untreated; 100 = plants died, 0 = like control
Summary of the method: as §2

With `CCn1nnnc1NC(=O)c1ccc(C(F)(F)F)c(CSC)c1SC` [Example 2-161] the “herbicidal activity AMARE” value (Amaranthus retroflexus) was 100%, the “herbicidal activity SETVI” value (Setaria viridis) was 100% and the “herbicidal activity ABUTH” value (Abutilon theophrasti) was 100%. The “herbicidal activity STEME” value (Stellaria media) was 100%, the “herbicidal action MATIN” value (Matricaria inodora; post-emergence, dosage 80 g/ha) was 100% and the “herbicidal action ECHCG” value (Echinochloa crus-galli; post-emergence, dosage 80 g/ha) was 90%.

In the case of `CCn1nnnc1NC(=O)c1ccc(C(F)(F)F)c(CS(C)(=O)=O)c1SC` [Example 2-163], the “herbicidal activity AMARE” value (Amaranthus retroflexus) is reported as 100%, the “herbicidal activity SETVI” value (Setaria viridis) is reported as 100% and the “herbicidal activity ABUTH” value (Abutilon theophrasti) is reported as 100%. For the same compound, the “herbicidal activity STEME” value (Stellaria media) was 90%, the “herbicidal action MATIN” value (Matricaria inodora; Dosage 80 g/ha) was 100 and the “herbicidal action ECHCG” value (Echinochloa crus-galli; Dosage 80 g/ha) was 100.

`CCn1nnnc1NC(=O)c1ccc(C(F)(F)F)c(CSC)c1Br` [Example 2-380] was tested, and the “herbicidal activity AMARE” value (Amaranthus retroflexus) was 100%, the “herbicidal activity SETVI” value (Setaria viridis) was 100% and the “herbicidal activity ABUTH” value (Abutilon theophrasti) was 100%. The “herbicidal activity STEME” value (Stellaria media) was 80%, the “herbicidal action MATIN” value (Matricaria inodora; post-emergence, dosage 80 g/ha) was 100% and the “herbicidal action ECHCG” value (Echinochloa crus-galli; post-emergence, dosage 80 g/ha) was 90%.

With `CCn1nnnc1NC(=O)c1ccc(C(F)(F)F)c(C[S+](C)[O-])c1Br` (stereo not drawn) [Example 2-381] the “herbicidal activity AMARE” value (Amaranthus retroflexus) was 100%, the “herbicidal activity SETVI” value (Setaria viridis) was 100% and the “herbicidal activity ABUTH” value (Abutilon theophrasti) was 100%. For the same compound, the “herbicidal activity STEME” value (Stellaria media) was 90%, the “herbicidal action MATIN” value (Matricaria inodora; post-emergence, dosage 80 g/ha) was 90% and the “herbicidal action ECHCG” value (Echinochloa crus-galli; post-emergence, dosage 80 g/ha) was 90%.

With `CCn1nnnc1NC(=O)c1ccc(C(F)(F)F)c(CS(C)(=O)=O)c1Br` [Example 2-382] the “herbicidal activity AMARE” value (Amaranthus retroflexus) was 100%, the “herbicidal activity SETVI” value (Setaria viridis) was 100% and the “herbicidal activity ABUTH” value (Abutilon theophrasti) was 100%. For the same compound, the “herbicidal activity STEME” value (Stellaria media) was 90%, the “herbicidal action MATIN” value (Matricaria inodora; Dosage 80 g/ha) was 100 and the “herbicidal action ECHCG” value (Echinochloa crus-galli; Dosage 80 g/ha) was 90.

For `CCSCc1c(C(F)(F)F)ccc(C(=O)Nc2nnnn2CC)c1Br` [Example 2-383], the “herbicidal activity AMARE” value (Amaranthus retroflexus) was 100%, the “herbicidal activity SETVI” value (Setaria viridis) was 100% and the “herbicidal activity ABUTH” value (Abutilon theophrasti) was 100%. For the same compound, the “herbicidal activity STEME” value (Stellaria media) was 100%, the “herbicidal action MATIN” value (Matricaria inodora; post-emergence, dosage 80 g/ha) was 100% and the “herbicidal action ECHCG” value (Echinochloa crus-galli; post-emergence, dosage 80 g/ha) was 90%.

In the case of `CCCn1nnnc1NC(=O)c1ccc(C(F)(F)F)c(CS(=O)(=O)CC)c1C` [Example 3-88], the “herbicidal activity AMARE” value (Amaranthus retroflexus) is reported as 100%, the “herbicidal activity SETVI” value (Setaria viridis) is reported as 100% and the “herbicidal activity ABUTH” value (Abutilon theophrasti) is reported as 100%. The “herbicidal activity STEME” value (Stellaria media) was 80%, the “herbicidal action MATIN” value (Matricaria inodora; Dosage 80 g/ha) was 90 and the “herbicidal action ECHCG” value (Echinochloa crus-galli; Dosage 80 g/ha) was 90.

`CCCn1nnnc1NC(=O)c1ccc(C(F)F)c(CSC)c1C` [Example 3-107] was tested, and the “herbicidal activity AMARE” value (Amaranthus retroflexus) was 100%, the “herbicidal activity SETVI” value (Setaria viridis) was 100% and the “herbicidal activity ABUTH” value (Abutilon theophrasti) was 100%. The “herbicidal activity STEME” value (Stellaria media) was 100%, the “herbicidal action MATIN” value (Matricaria inodora; Dosage 80 g/ha) was 90 and the “herbicidal action ECHCG” value (Echinochloa crus-galli; Dosage 80 g/ha) was 90.

`CCCn1nnnc1NC(=O)c1ccc(C(F)(F)F)c(CSC)c1OC` [Example 3-134] was tested, and the “herbicidal activity AMARE” value (Amaranthus retroflexus) was 100%, the “herbicidal activity SETVI” value (Setaria viridis) was 100% and the “herbicidal activity ABUTH” value (Abutilon theophrasti) was 100%. The “herbicidal activity STEME” value (Stellaria media) was 100%, the “herbicidal action MATIN” value (Matricaria inodora; Dosage 80 g/ha) was 100 and the “herbicidal action ECHCG” value (Echinochloa crus-galli; Dosage 80 g/ha) was 100.

For `CCCn1nnnc1NC(=O)c1ccc(C(F)(F)F)c(CSC)c1Cl` [Example 3-296], the “herbicidal activity AMARE” value (Amaranthus retroflexus) was 100%, the “herbicidal activity SETVI” value (Setaria viridis) was 100% and the “herbicidal activity ABUTH” value (Abutilon theophrasti) was 100%. For the same compound, the “herbicidal activity STEME” value (Stellaria media) was 100%, the “herbicidal action MATIN” value (Matricaria inodora; Dosage 80 g/ha) was 100 and the “herbicidal action ECHCG” value (Echinochloa crus-galli; Dosage 80 g/ha) was 100.

`CCCn1nnnc1NC(=O)c1ccc(C(F)(F)F)c(C[S+](C)[O-])c1Cl` (stereo not drawn) [Example 3-297] was tested, and the “herbicidal activity AMARE” value (Amaranthus retroflexus) was 100%, the “herbicidal activity SETVI” value (Setaria viridis) was 100% and the “herbicidal activity ABUTH” value (Abutilon theophrasti) was 100%. For the same compound, the “herbicidal activity STEME” value (Stellaria media) was 100%, the “herbicidal action MATIN” value (Matricaria inodora; post-emergence, dosage 80 g/ha) was 100% and the “herbicidal action ECHCG” value (Echinochloa crus-galli; post-emergence, dosage 80 g/ha) was 80%.

For `CCCn1nnnc1NC(=O)c1ccc(C(F)(F)F)c(CSCC)c1Cl` [Example 3-299], the “herbicidal activity AMARE” value (Amaranthus retroflexus) was 100%, the “herbicidal activity SETVI” value (Setaria viridis) was 100% and the “herbicidal activity ABUTH” value (Abutilon theophrasti) was 100%. For the same compound, the “herbicidal activity STEME” value (Stellaria media) was 90%, the “herbicidal action MATIN” value (Matricaria inodora; Dosage 80 g/ha) was 100 and the “herbicidal action ECHCG” value (Echinochloa crus-galli; Dosage 80 g/ha) was 90.

For `CCCn1nnnc1NC(=O)c1ccc(C(F)F)c(CSC)c1Cl` [Example 3-320], the “herbicidal activity AMARE” value (Amaranthus retroflexus) was 100%, the “herbicidal activity SETVI” value (Setaria viridis) was 100% and the “herbicidal activity ABUTH” value (Abutilon theophrasti) was 100%. For the same compound, the “herbicidal activity STEME” value (Stellaria media) was 100%, the “herbicidal action MATIN” value (Matricaria inodora; Dosage 80 g/ha) was 100 and the “herbicidal action ECHCG” value (Echinochloa crus-galli; Dosage 80 g/ha) was 100.

With `CCCn1nnnc1NC(=O)c1ccc(C(F)(F)F)c(C[S+](C)[O-])c1Br` (stereo not drawn) [Example 3-381] the “herbicidal activity AMARE” value (Amaranthus retroflexus) was 100%, the “herbicidal activity SETVI” value (Setaria viridis) was 90% and the “herbicidal activity ABUTH” value (Abutilon theophrasti) was 100%. The “herbicidal activity STEME” value (Stellaria media) was 90%, the “herbicidal action MATIN” value (Matricaria inodora; post-emergence, dosage 80 g/ha) was 90% and the “herbicidal action ECHCG” value (Echinochloa crus-galli; post-emergence, dosage 80 g/ha) was 90%.

In the case of `CCCn1nnnc1NC(=O)c1ccc(C(F)(F)F)c(CSCC)c1Br` [Example 3-383], the “herbicidal activity AMARE” value (Amaranthus retroflexus) is reported as 100%, the “herbicidal activity SETVI” value (Setaria viridis) is reported as 100% and the “herbicidal activity ABUTH” value (Abutilon theophrasti) is reported as 100%. The “herbicidal activity STEME” value (Stellaria media) was 100%, the “herbicidal action MATIN” value (Matricaria inodora; Dosage 80 g/ha) was 100 and the “herbicidal action ECHCG” value (Echinochloa crus-galli; Dosage 80 g/ha) was 90.

`CCCn1nnnc1NC(=O)c1ccc(C(F)(F)F)c(CS(=O)(=O)CC)c1Br` [Example 3-385] was tested, and the “herbicidal activity AMARE” value (Amaranthus retroflexus) was 100%, the “herbicidal activity SETVI” value (Setaria viridis) was 100% and the “herbicidal activity ABUTH” value (Abutilon theophrasti) was 100%. For the same compound, the “herbicidal activity STEME” value (Stellaria media) was 90%, the “herbicidal action MATIN” value (Matricaria inodora; Dosage 80 g/ha) was 90 and the “herbicidal action ECHCG” value (Echinochloa crus-galli; Dosage 80 g/ha) was 100.
